Molecular target: T1, MAGL (Homo sapiens, UniProt Q99685)
T1 sequence (Q99685 1-303): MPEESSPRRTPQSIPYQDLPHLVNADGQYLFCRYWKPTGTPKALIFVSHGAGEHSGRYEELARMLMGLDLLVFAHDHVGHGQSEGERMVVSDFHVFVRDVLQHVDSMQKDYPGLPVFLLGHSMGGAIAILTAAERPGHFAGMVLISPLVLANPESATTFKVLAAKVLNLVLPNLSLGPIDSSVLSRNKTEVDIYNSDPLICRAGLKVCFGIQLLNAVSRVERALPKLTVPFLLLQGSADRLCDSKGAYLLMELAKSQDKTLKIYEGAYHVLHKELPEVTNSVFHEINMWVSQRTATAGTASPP
Experiment: MAGL inhibition, 2-AG assay (hydrolysis of 2-arachidonoylglycerol, arachidonic acid by mass spectrometry)
Assay type: biochemical
Details: 2-AG assay (footnote [b])
Method in brief: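 Hydrolysis of 8 μM 2-arachidonoylglycerol by […] was run for 30 min at RT after a 15 min compound preincubation, in Tris/EDTA/Tween buffer. Test compounds spanned […]. The product was measured by online SPE-MS/MS (transitions 303.1→259.1 and 311.1→267.0), and activity was derived from the arachidonic acid/d8-arachidonic acid signal ratio.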

Row | IC50 [nM] | SMILES
1 | 155 | O=C1CO[C@H]2CCN(C(=O)N3CC(C(c4ccccc4)c4ccccc4)C3)C[C@H]2N1 [Example 86, (4aR,8aS)-6-(3-Benzhydrylazetidine-1-carbonyl)hexahydro-2H-pyrido[4,3-b][1,4]oxazin-3(4H)-one]
2 | 49 | CC(OC1CN(C(=O)N2CC[C@@H]3OCC(=O)N[C@@H]3C2)C1)c1ccc(C(F)(F)F)cc1 (stereo partly drawn) [Example 90, (4aR,8aS)-6-[3-[1-[4-(Trifluoromethyl)phenyl]ethoxy]azetidine-1-carbonyl]-4,4a,5,7,8,8a-hexahydropyrido[4,3-b][1,4]oxazin-3-one]
3 | 15 | CC(Oc1ccc(C(F)(F)F)cc1F)C1CN(C(=O)N2CC[C@@H]3OCC(=O)N[C@@H]3C2)C1 (stereo partly drawn) [Example 91, (4aR,8aS)-6-(3-(1-(2-Fluoro-4-(trifluoromethyl)phenoxy)ethyl)azetidine-1-carbonyl)hexahydro-2H-pyrido[4,3-b][1,4]oxazin-3(4H)-one]
4 | 20 | CC(Oc1ccc(C(F)(F)F)cc1)C1CN(C(=O)N2CC[C@@H]3OCC(=O)N[C@@H]3C2)C1 (stereo partly drawn) [Example 92, (4aR,8aS)-6-(3-(1-(4-(Trifluoromethyl)phenoxy)ethyl)azetidine-1-carbonyl)hexahydro-2H-pyrido[4,3-b][1,4]oxazin-3(4H)-one]
5 | 73 | CC(OC1CCN(C(=O)N2CC[C@@H]3OCC(=O)N[C@@H]3C2)CC1)c1ccc(C(F)(F)F)cc1 (stereo partly drawn) [Example 93, (4aR,8aS)-6-[4-[1-[4-(Trifluoromethyl)phenyl]ethoxy]piperidine-1-carbonyl]-4,4a,5,7,8,8a-hexahydropyrido [4,3-b][1,4]oxazin-3-one]
6 | 219 | Cc1cc(C2CCN(C(=O)N3CC[C@@H]4OCC(=O)N[C@@H]4C3)CC2)cnc1C(F)(F)F [Example 101, (4aR,8aS)-6-(4-(5-Methyl-6-(trifluoromethyl)pyridin-3-yl)piperidine-1-carbonyl)hexahydro-2H-pyrido[4,3-b][1,4]oxazin-3(4H)-one]
7 | 5 | O=C1CO[C@H]2CCN(C(=O)N3CCC(C(c4ccc(F)cc4)c4nc(C(F)(F)F)no4)CC3)C[C@H]2N1 (stereo partly drawn) [Example 102, (4aR,8aS)-6-(4-((4-Fluorophenyl)(3-(trifluoromethyl)-1,2,4-oxadiazol-5-yl)methyl)piperidine-1-carbonyl)hexahydro-2H-pyrido[4,3-b][1,4]oxazin-3(4H)-one]
8 | 576 | O=C1CO[C@H]2CCN(C(=O)N3CCC(c4ccnc5c4CCCC5)CC3)C[C@H]2N1 [Example 107, (4aR,8aS)-6-(4-(5,6,7,8-Tetrahydroquinolin-4-yl)piperidine-1-carbonyl)hexahydro-2H-pyrido[4,3-b][1,4]oxazin-3(4H)-one]
9 | 29 | O=C1CO[C@H]2CCN(C(=O)N3CC(c4ccc(Br)cc4)C3)C[C@H]2N1 [Example 110, (4aR,8aS)-6-[3-(4-bromophenyl)azetidine-1-carbonyl]-4,4a,5,7,8,8a-hexahydropyrido[4,3-b][1,4]oxazin-3-one]
10 | 0.4 | O=C1CO[C@H]2CCN(C(=O)N3CC(c4ccc(-c5ccc(Cl)cc5)cc4)C3)C[C@H]2N1 [Example 111, (4aR,8aS)-6-(3-(4′-Chloro-[1,1′-biphenyl]-4-yl)azetidine-1-carbonyl)hexahydro-2H-pyrido[4,3-b][1,4]oxazin-3(4H)-one]
11 | 0.1 | O=C1CO[C@H]2CCN(C(=O)N3CC(c4ccc(-c5ccccc5Cl)cc4)C3)C[C@H]2N1 [Example 112, (4aR,8aS)-6-(3-(2′-Chloro-[1,1′-biphenyl]-4-yl)azetidine-1-carbonyl)hexahydro-2H-pyrido[4,3-b][1,4]oxazin-3(4H)-one]
12 | 0.04 | O=C1CO[C@H]2CCN(C(=O)N3CC(c4ccc(-c5ccc(Cl)cc5Cl)cc4)C3)C[C@H]2N1 [Example 113, (4aR,8aS)-6-(3-(2′,4′-Dichloro-[1,1′-biphenyl]-4-yl)azetidine-1-carbonyl)hexahydro-2H-pyrido[4,3-b][1,4]oxazin-3(4H)-one]
13 | 7 | O=C1CO[C@H]2CCN(C(=O)N3CC(c4ccc(OC(F)(F)F)cc4)C3)C[C@H]2N1 [Example 120, (4aR,8aS)-6-[3-[4-(Trifluoromethoxy)phenyl]azetidine-1-carbonyl]-4,4a,5,7,8,8a-hexahydropyrido[4,3-b][1,4]oxazin-3-one]
14 | 0.03 | O=C1CO[C@H]2CCN(C(=O)N3CC(c4ccc(-c5ccccc5OC(F)(F)F)cc4)C3)C[C@H]2N1 [Example 121, (4aR,8aS)-6-(3-(2′-(Trifluoromethoxy)-[1,1′-biphenyl]-4-yl)azetidine-1-carbonyl)hexahydro-2H-pyrido[4,3-b][1,4]oxazin-3(4H)-one]
15 | 90 | O=C1CO[C@H]2CCN(C(=O)N3CC(F)(c4ccc(Br)cc4)C3)C[C@H]2N1 [Example 122, (4aR,8aS)-6-(3-(4-Bromophenyl)-3-fluoroazetidine-1-carbonyl)hexahydro-2H-pyrido[4,3-b][1,4]oxazin-3(4H)-one]
16 | 226 | O=C1CO[C@H]2CCN(C(=O)N3CC(O)(c4ccc(Br)cc4)C3)C[C@H]2N1 [Example 123, (4aR,8aS)-6-(3-(4-Bromophenyl)-3-hydroxyazetidine-1-carbonyl)hexahydro-2H-pyrido[4,3-b][1,4]oxazin-3(4H)-one]
17 | 113 | CC1(c2ccc(Br)cc2)CN(C(=O)N2CC[C@@H]3OCC(=O)N[C@@H]3C2)C1 [Example 124, (4aR,8aS)-6-(3-(4-Bromophenyl)-3-methylazetidine-1-carbonyl)hexahydro-2H-pyrido[4,3-b][1,4]oxazin-3(4H)-one]
18 | 0.04 | O=C1CO[C@H]2CCN(C(=O)N3CC(c4ccc(-c5ccccc5C(F)(F)F)cc4)C3)C[C@H]2N1 [Example 125, (4aR,8aS)-6-(3-(2′-(Trifluoromethyl)-[1,1′-biphenyl]-4-yl)azetidine-1-carbonyl)hexahydro-2H-pyrido[4,3-b][1,4]oxazin-3(4H)-one]
19 | 0.3 | O=C1CO[C@H]2CCN(C(=O)N3CC(c4ccc(-c5ccc(F)cc5F)cc4)C3)C[C@H]2N1 [Example 126, (4aR,8aS)-6-(3-(2′,4′-Difluoro-[1,1′-biphenyl]-4-yl)azetidine-1-carbonyl)hexahydro-2H-pyrido[4,3-b][1,4]oxazin-3(4H)-one]
20 | 0.5 | N#Cc1ccccc1-c1ccc(C2CN(C(=O)N3CC[C@@H]4OCC(=O)N[C@@H]4C3)C2)cc1 [Example 127, 4′-(1-((4aR,8aS)-3-Cxooctahydro-2H-pyrido[4,3-b][1,4]oxazine-6-carbonyl)azetidin-3-yl)-[1,1′-biphenyl]-2-carbonitrile]
21 | 45 | COC1CN(c2ccc(C3CN(C(=O)N4CC[C@@H]5OCC(=O)N[C@@H]5C4)C3)cc2)C1 [Example 128, (4aR,8aS)-6-(3-(4-(3-Methoxyazetidin-1-yl)phenyl)azetidine-1-carbonyl)hexahydro-2H-pyrido[4,3-b][1,4]oxazin-3(4H)-one]
22 | 2 | O=C1CO[C@H]2CCN(C(=O)N3CC(c4ccc(N5CC(C(F)(F)F)C5)cc4)C3)C[C@H]2N1 [Example 129, (4aR,8aS)-6-(3-(4-(3-(Trifluoromethyl)azetidin-1-yl)phenyl)azetidine-1-carbonyl)hexahydro-2H-pyrido[4,3-b][1,4]oxazin-3(4H)-one]
23 | 4 | NC(=O)c1ccccc1-c1ccc(C2CN(C(=O)N3CC[C@@H]4OCC(=O)N[C@@H]4C3)C2)cc1 [Example 130, 2-[4-[1-[(4aR,8aS)-3-Oxo-4,4a,5,7,8,8a-hexahydropyrido[4,3-b][1,4]oxazine-6-carbonyl]azetidin-3-yl]phenyl]benzamide]
24 | 0.4 | O=C1CO[C@H]2CCN(C(=O)N3CC(c4ccc(-c5ccccc5)c(Cl)c4)C3)C[C@H]2N1 [Example 131, (4aR,8aS)-6-(3-(2-Chloro-[1,1′-biphenyl]-4-yl)azetidine-1-carbonyl)hexahydro-2H-pyrido[4,3-b][1,4]oxazin-3(4H)-one]
25 | 10 | O=C1CO[C@H]2CCN(C(=O)N3CC(c4ccc(Br)c(Cl)c4)C3)C[C@H]2N1 [Example 132, (4aR,8aS)-6-(3-(4-Bromo-3-chlorophenyl)azetidine-1-carbonyl)hexahydro-2H-pyrido[4,3-b][1,4]oxazin-3(4H)-one]
26 | 0.2 | O=C1CO[C@H]2CCN(C(=O)N3CC(c4ccc(-c5ccc(Cl)cc5F)cc4)C3)C[C@H]2N1 [Example 133, (4aR,8aS)-6-[3-[4-(4-Chloro-2-fluoro-phenyl)phenyl]azetidine-1-carbonyl]-4,4a,5,7,8,8a-hexahydropyrido[4,3-b][1,4]oxazin-3-one]
27 | 0.1 | O=C1CO[C@H]2CCN(C(=O)N3CC(c4ccc(-c5ccc(F)cc5Cl)cc4)C3)C[C@H]2N1 [Example 134, (4aR,8aS)-6-[3-[4-(2-Chloro-4-fluoro-phenyl)phenyl]azetidine-1-carbonyl]-4,4a,5,7,8,8a-hexahydropyrido[4,3-b][1,4]oxazin-3-one]
28 | 0.1 | Cc1ccccc1-c1ccc(C2CN(C(=O)N3CC[C@@H]4OCC(=O)N[C@@H]4C3)C2)cc1 [Example 137, (4aR,8aS)-6-(3-(2′-Methyl-[1,1′-biphenyl]-4-yl)azetidine-1-carbonyl)hexahydro-2H-pyrido[4,3-b][1,4]oxazin-3(4H)-one]

— US20230117324A1, “OXAZINE MONOACYLGLYCEROL LIPASE (MAGL) INHIBITORS” (Hoffmann-La Roche Inc., priority 2018, published 2023)
